Source: PubChem BioAssay (NCI)
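Briefly, cells in 96-well plates were exposed to five compound concentrations for 48 h, and endpoints were estimated by linear interpolation. GI50 = concentration required for 50% inhibition of growth. TGI: total growth inhibition.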

Assays:
Experiment in all cases: growth of human tumour cells (NCI), 48 h
SR leukemia = tested on: SR leukemia
SF-268 CNS = tested on: SF-268 CNS
SW-620 colon = tested on: SW-620 colon
IGROV1 ovarian = tested on: IGROV1 ovarian
MDA-MB-231 breast = tested on: MDA-MB-231 breast
SK-MEL-5 melanoma = tested on: SK-MEL-5 melanoma
DU-145 prostate = tested on: DU-145 prostate
SN12C renal = tested on: SN12C renal
SF-539 CNS = tested on: SF-539 CNS
MALME-3M melanoma = tested on: MALME-3M melanoma

SMILES	TGI (SR leukemia) [µM]	TGI (SF-268 CNS) [µM]	TGI (SW-620 colon) [µM]	TGI (IGROV1 ovarian) [µM]	TGI (MDA-MB-231 breast) [µM]	TGI (SK-MEL-5 melanoma) [µM]	TGI (DU-145 prostate) [µM]	TGI (SN12C renal) [µM]	TGI (SF-539 CNS) [µM]	TGI (MALME-3M melanoma) [µM]	GI50 (SF-268 CNS) [µM]	GI50 (SW-620 colon) [µM]	GI50 (SF-539 CNS) [µM]	GI50 (IGROV1 ovarian) [µM]	GI50 (MDA-MB-231 breast) [µM]	GI50 (SK-MEL-5 melanoma) [µM]	GI50 (DU-145 prostate) [µM]	GI50 (SN12C renal) [µM]	GI50 (MALME-3M melanoma) [µM]	GI50 (SR leukemia) [µM]
C/C=C(/C)c1cnc(CC(C)C)c(=O)[nH]1	> 100	> 100	> 100	> 100	> 100	> 100	> 100	> 100												
Nc1ccc(C(=O)CC2(O)C(=O)Nc3c(Cl)cc(Cl)cc32)cc1 (stereo unspecified)		> 100	65.4					> 100	> 100	> 100										
COc1ccc(N2C(=O)C3c4[nH]c5ccccc5c4C4CCCCCCC4C3C2=O)cc1 (stereo unspecified)	> 21.3	31.3	34.1	59.1		61.9		14.9	21.5	41.4										
CCOC(=O)c1c(-c2ccccc2)c(C(OC(c2ccccc2)c2c(-c3ccccc3)c(C(=O)OCC)n3ccccc23)c2ccccc2)c2ccccn12 (stereo unspecified)	> 100	> 100	> 100	> 100				> 100		> 100										
CC(C)(C)n1cc(-c2ccnc(NCCCNS(=O)(=O)c3ccc(Br)cc3)c2)c(-c2cccc(O)c2)n1		6.48	3.63	3.93	3.39	2.87	4.23	3.01	3.17	3.24	2.4	1.83	1.7	1.91	1.74	1.52	2.1	1.61	1.66	
COc1cc(C2c3cc4c(cc3[C@@H](N(C)C)[C@H]3COC(=O)C23)OCO4)cc(OC)c1O (stereo partly specified)	> 100	> 100	> 100	> 100		86.5		> 100	53.8	> 100										
COc1ccccc1NC(=O)C1=C(C)NC(C)=C(C(=O)Nc2ccccc2OC)C1c1ccc(N(C)C)cc1		> 100	> 100	> 100		96.7		> 100	73.7	> 100										
COC(=O)C1Cc2c([nH]c3ccccc23)C(c2ccccc2O)N1Cc1ccccc1 (stereo unspecified)	> 31.6	> 31.6	> 46.4	33.3		> 46.4		> 46.4	65.2	> 31.6										
CC1=NOC(=O)C1N=Nc1ccc(Br)c(C)c1 (stereo unspecified)		47.6	34.7	39.4		25.4		48.5	44.6	33.3										
CN1C(=O)C2C=CC1C1CCC2N(C)C1=O (stereo unspecified)		> 100	> 100	> 100		> 100		> 100	> 100	> 100										
COC(=O)[C@]1(C)C(OC)=CC(=O)C2C1[C@H]1CCC[C@@H]21 (stereo partly specified)	> 100	> 100		> 100		> 100		> 100	> 100	> 100										
COC(=O)c1ccc(CN2C(=O)C(Cl)=C(Nc3ccc(OC)c(Cl)c3)C2=O)cc1	36.9	> 50	> 50	> 50	26.3	> 50	> 50	33.7			15.4	> 50		10.6	7.14	31.6	21.8	9.04		4.08
COC(=O)C(CC(=O)c1c[nH]c2ccccc12)c1c[nH]c2ccccc12 (stereo unspecified)			57.2	> 10		32.2			39.5	52.3										
Clc1ccc2c(c1)[nH]c1c2nc2sccn21	> 100	> 100	> 100	> 100		> 100		> 100	> 100	> 100										
COc1cc(/C=C/c2ccc(OC)c(OC)c2OC)cc(OC)c1OC	78.5	> 64.2	> 92.6	83.3		28.5		> 69.5	37	48.7										
ClCc1ccc(C2OCCO2)cc1	> 79.7	> 100	34.4	> 100		> 55.5		35.3	> 56.7	49.9										
CC[C@H](Nc1nc(N)nc(C2CC2)c1C#N)c1nc2cccc(NCc3ccc(C(=O)NO)cc3)c2c(=O)n1-c1ccccc1		4.12	4.81		3.86		4.56	5.39	3.24	4.61	1.74	1.73	1.72		1.42		1.95	1.79	1.78	
COc1cc(C2c3cc4c(cc3[C@@H](OCCN(C)C)C3COC(=O)[C@H]23)OCO4)cc(OC)c1O (stereo partly specified)	0.0831	3.83	3.59	4.97		1.42		0.606	0.702	1.87										
O=c1cc(-c2ccccn2)[nH]c2cc(F)ccc12	> 100	> 100	> 100	> 100		> 100		> 100	> 100	> 100	29.5									
COc1ccc(/C=C\c2cc(OC)c(OC)c(OC)c2)c(NS(=O)(=O)c2ccc(Cl)cc2)c1O	10.4	33.9	> 100	49.5	21.4	0.332	> 100	46.5	10.5		0.38	0.0694	0.0371	0.379	0.206	0.0511	0.2	0.708		0.0306
COc1cc2c3c(ncc2c(OC)c1OC)-c1cc2c(cc1C3)OCO2	17.6		> 100		29.5	> 100	> 100					66.4			11.5	54.1	26.9			0.25
COC(=O)C(=O)C(C(=O)C(N)=O)c1nc2ccc(C(=O)c3ccccc3)cc2[nH]c1=O (stereo unspecified)	> 100	> 100	> 100	> 100	> 100	> 100		> 100	> 100	> 100										

SMILES	TGI (SR leukemia) [µM]	TGI (SF-268 CNS) [µM]	TGI (SW-620 colon) [µM]	TGI (IGROV1 ovarian) [µM]	TGI (MDA-MB-231 breast) [µM]	TGI (SK-MEL-5 melanoma) [µM]	TGI (DU-145 prostate) [µM]	TGI (SN12C renal) [µM]	TGI (SF-539 CNS) [µM]	TGI (MALME-3M melanoma) [µM]	GI50 (SF-268 CNS) [µM]	GI50 (SW-620 colon) [µM]	GI50 (SF-539 CNS) [µM]	GI50 (IGROV1 ovarian) [µM]	GI50 (MDA-MB-231 breast) [µM]	GI50 (SK-MEL-5 melanoma) [µM]	GI50 (DU-145 prostate) [µM]	GI50 (SN12C renal) [µM]	GI50 (MALME-3M melanoma) [µM]	GI50 (SR leukemia) [µM]
Cc1c(Cl)cccc1NC(=O)/C(Cl)=C(\Cl)C(=O)O	39.6	40.9	39.9	35.7		38.2		31.2	31.7	32.2										
S=P(N1CCCC1)(N1CC1)N1CC1	> 100	> 100	> 100	> 100		> 100		> 100	> 100	> 100										
NC(=O)c1csc(C2CCC(CO)O2)n1 (stereo unspecified)		> 100	> 100	> 100				> 100	> 100	> 100										
Cc1ccc2sc3ccc(N)cc3c(=O)c2c1	> 100	> 100	> 100	> 100	> 100	> 100	> 100	> 100	> 100											
CC(=O)c1cccc(-c2cccc(-c3ccn(CCN4CCOCC4)n3)c2)c1	> 20	> 20	> 20	> 20	> 20	> 20	> 20	> 20	> 20		> 20	> 20	> 20	> 20	> 20	11.6	> 20	> 20		> 20
CS(=O)(=O)NNS(=O)(=O)c1ccc(Cl)cc1	> 100		> 100	> 100		> 100		> 100	> 100	> 100										
COC(=O)c1ccc(C(=O)OC)c2nc3cc(C)ccc3nc12		> 100	> 100	> 100		> 100		> 100	> 100	> 100										
CCCCCCNC(=O)n1cc(F)c(=O)[nH]c1=O	21.3	87.9	20.7		24.5	27.1	> 100	24.3	15.1		9.07	3.48	0.514		10.2	3.54	5.38	4.29		1.44
CCN(CC)CCOc1c(OC)c(Br)cc2c(C)c(C(=O)OC)oc12	1.31	5.08	2.04	7.05	3.46	1.53		2.36	3.15		1.33	0.802	1.47	1.4	1.22	0.818		0.92		0.542
Cc1c(C(=O)CC(=O)C(=O)Nc2cc(Cl)ccc2Cl)[n+](=O)c2ccccc2n1[O-]	63.6	> 100	> 100	> 100		> 100		> 100	> 100	> 100										
Clc1ccc(-c2c(C3=NCCN3)nnn2-c2ccccc2)cc1	> 100	> 100	> 100	> 100		> 100		> 100	> 100	> 100										
O=C1CCN2CCC(=O)c3c2c(cc2ccccc32)N1		> 100	> 100	> 100		> 100		> 100	> 100	> 100										
COc1ccc2ccccc2c1CN1CCOCCOCCN(Cc2c(OC)ccc3ccccc23)CCOCCOCC1	> 100	> 100	> 94.7	> 100		> 53.6		> 100	> 68.8	> 63.9										
CCCCCCCCCCCCCC(=O)NCC(OCC)OCC		> 100	> 100	> 100		> 100		> 100	> 100	> 100										
CCCCN(CC)c1ncnc2ccc(Br)cc12	34.2	68		> 100		33.4	46.8	40.9		38.5	19.1			16.7		16.1	19.4	18.8	19.1	8.42
CC(/C=C/NNC1=NC(c2ccccc2)C(c2ccccc2)=NN1)Sc1ccccc1N (stereo unspecified)	21	16	7.75	30		23.6		18.2	20.9	20.9										
CN1c2ccccc2S(=O)(=O)n2c(CCc3ccccc3)nnc21		> 100	> 100	> 100	> 100	> 100	> 100	> 100	> 100											
Cc1cccc(N=C2NC(=O)C(CC(=O)Nc3ccc(C)cc3C)S2)c1 (stereo unspecified)	> 100	> 100	> 100	> 100		> 100		> 100	> 100	> 100										
CCOC(=O)C1=C(Nc2ccc(Cl)c(Cl)c2)OC/C1=N\NC(=O)Cc1ccccc1		> 100	> 100	> 100		> 100		> 100	> 100	> 100										
CC1(O)CCC2(C)C(=O)C1(C)CCC21OCCO1 (stereo unspecified)	> 100	> 100	> 100	> 100		> 100		> 100	> 100	> 100										
N#Cc1c(C[n+]2ccccc2)c2ccccc2oc1=O	> 100	> 100	> 100	> 100		> 100		> 100	> 100	> 100										
